System: PBMCs from cancer patients and healthy donors
Experiment: in vitro IFNγ ELISPOT of PBMCs after 7 days with peptide and IL-2
Format: cell-based, human
Conditions: for cancer patients showing responses in IFNγ ELISPOT: out of 16 cancer patients (8 melanoma, 6 multiple myeloma, 1 breast cancer, 1 renal cell carcinoma); for cancer patients showing responses in IFNγ ELISPOT / healthy donors showing responses in IFNγ ELISPOT: strong responses counted for ArgLong2, FIG. 2; for healthy donors showing responses in IFNγ ELISPOT: out of 19 healthy donors; for responses in IFNγ ELISPOT (in words): PBMCs from 6 healthy donors, peptide and low dose IL-2 for 1 week, FIG. 1
Method: PBMCs from healthy donors were isolated using density gradient separation over LymphoprepTM (STEMCELL Technologies) and cryopreserved at -150° C. in FBS supplemented with 10% DMSO. PBMCs from cancer patients were isolated from blood sample a minimum of four weeks after the termination of any anti-cancer therapy. The protocol was approved by the Scientific Ethics Committee for The Capital Region of Denmark and conducted in accordance with the provisions of the Declaration of Helsinki. Written informed consent from the patients was obtained before study entry. […] The sequences of the peptides used in these experiments are shown in full below in alignment with each other, and are also set out in the section entitled “Sequences”). Peptides are described by SEQ ID NO, by name, or by reference to the start and end positions of each peptide sequence within the full length sequence of Arginase 1. Each may be used interchangeably. For example, the peptide of SEQ ID NO: 1 may alternatively be referred to by the name ArgLong2, or may alternatively be referred to as […]-206 (given a start position of 169 and end position of 206). The intended reference in each case will be clear from the context. For in vitro ELISPOT, PBMCs from cancer patients and healthy donors were pulsed with 20 μM of Arginase 1-derived peptides and 120 U/ml IL-2 in 24-well plates for 7 days before being used in an ELISPOT assay. The cells were placed in 96-well nitrocellulose ELISPOT plates (MultiScreen MAIP […]; Millipore) pre-coated with IFNγ capture antibody (Mabtech). Arginase peptides added to a final concentration of 5 μM and plates incubated at 37° C. for 14-16 hours. After the incubation the cells were washed off and secondary biotinylated Ab (Mabtech, cat. 3420-6-1000) was added for 2 hours at room temperature. Unbound secondary antibody was washed off and streptavidin conjugated alkaline phosphatase (AP) (Mabtech, cat. 3310-10) was added for 1 hour at room temperature. Unbound conjugated enzyme was washed off and the assay was developed by adding BCIP/NBT substrate (Mabtech, cat. 3650-10). Developed ELISPOT plates were analyzed on CTL ImmunoSpot S6 Ultimate-V analyzer using Immunospot software v5.1. Responses were reported as the difference between average numbers of spots in wells stimulated with Arginase 1 and wells without added peptide.

Row | Sequence | cancer patients showing responses in IFNγ ELISPOT | healthy donors showing responses in IFNγ ELISPOT | responses in IFNγ ELISPOT (in words)
1 | AKDIVYIGLRDVDPGEHYIL (Peptide fragment of human Arginase 1 (Arg1-18)) [Arg171-190, previously described 20-mer Arginase 1 peptide (WO2018065563), reference compound] | 3 cancer patients | 3 healthy donors | 
2 | DVDPGEHYILKTLGIKYFSM (Peptide fragment of human Arginase 1 (Arg1-19)) [Arg181-200, previously described 20-mer Arginase 1 peptide (WO2018065563), reference compound] | 6 cancer patients | 4 healthy donors | 
3 | ISAKDIVYIGLRDVDPGEHYILKTLGIKYFSM (Peptide fragment of human Arginase 1 (ArgLong3)) [32-mer, positions 169-200 of full length human Arginase 1] |  |  | low or no responses
4 | ISAKDIVYIGLRDVDPGEHYILKTLGIKYFSMTEVDRLGIGK (Peptide fragment of human Arginase 1 (ArgLong)) [42-mer, positions 169-210 of full length human Arginase 1] |  |  | low or no responses
5 | KTLGIKYFSMTEVDRLGIGK (Peptide fragment of human Arginase 1 (Arg1-20)) [Arg191-210, previously described 20-mer Arginase 1 peptide (WO2018065563), reference compound] | 3 cancer patients | 7 healthy donors | 

From patent US12194081B2, “ARGINASE1 polypeptides” (IO BIOTECH APS, priority 2018, dated 2025)
